Two sequences from patent US6825178B1, “Methods and products for treating pseudomonas infection” (The Brigham and Women's Hospital, Inc., priority 1996, dated 2004) can be followed below.

Marks after values point to notes of the source that are not given here.

For test [1], the system named is transformed human airway epithelial cells (CFT1-LCFSN line). As to the kind of experiment: Inhibition of internalization of P. aeruginosa strain 324 into CFT1-LCFSN cells (bacterial ingestion assay). Conditions: strain 324, CFT1-LCFSN cells. The test is classed as cell-based. An excerpt: Cell lines. CFT1-LCFSN cells, carrying a retrovirally introduced chromosomal copy of the wild-type human CFTR gene were kindly provided by J. Olsen, J. Yankaskis and L. Johnson from The University of North Carolina, Chapel Hill, N.C.. The cell line parental to CFT1-LCFSN is designated CFT1; it is a line of human papilloma virus 18 E6/E7 transformed bronchial epithelial cells derived from a CF patient homozygous for ΔF508 CFTR. The CFT1-LCFSN cells have normal chloride ion conductance. CFT1-ΔF508 cells are derived from CFT1 cells and carry a cDNA introduced by a retrovirus vector that encodes the ΔF508 mutant form of CFTR. Cells were grown in supplemented F-12 medium as described in 5% CO2 at 37° C.
Bacterial strains. P. aeruginosa strains used include PAO1, a well-characterized laboratory strain, and strains 149 and 324, non-mucoid, LPS-smooth clinical isolates of P. aeruginosa from CF patients early in the course of infection. Fresh cultures of P. aeruginosa grown overnight at 37° C. on a tryptic soy agar plate were suspended in supplemented medium to prepare the bacterial inoculum. Approximately 10^6 cfu of the bacterial inoculum were added per well of 10^5, epithelial cells.
Reagents for inhibition of ingestion assays. Membranes were prepared from C127 cells as described by O'Riordan et al.. Membranes were suspended in 150 mM NaCl, 50 mM Tris, pH 7.5 and 1 mM EDTA and added at the indicated concentration to suspensions of P. aeruginosa strains prior to adding this mixture to CFT1-LCFSN cells to measure bacterial uptake. Membranes from CEM/VbI cells expressing P-glycoprotein and membranes from control CEM cells lacking P-glycoprotein were obtained from James Croop of Harvard Medical School. Purified (˜85%) recombinant CFTR was obtained from Genzyme Corp., and prepared as described. The protein was solubilized in 100 mM NaCl, 10 mM Tris, pH 8.0, 2 mM di-thio-threitol and 0.1% sodium dodecyl sulfate. Monoclonal antibodies raised to synthetic peptides corresponding to the first (MAb CF3) and fourth (MAb CF4) predicted extracellular domains of CFTR, as well as a MAb specific to a peptide representing the carboxy-terminal 14 amino acids of mature CFTR (MAb CF2) were provided by Dr. George Banting, University of Bristol, Bristol, UK [12]. Synthetic peptides were obtained from Chiron Mimetopes, San Diego, Calif. Peptide GRIIASYDPDNKEER (15 amino acids) (SEQ.ID.NO. 3) represents amino acids 103-117 of mature CFTR, peptide […] (31 amino acids) (SEQ.ID.NO. 4) represents amino acids 881-911 of mature CFTR. Peptides were made up as a stock solution in F-12 medium containing 1 μM/μl based on the purity reported by the manufacturer. Peptides were diluted in F-12 tissue culture medium prior to use in assays.
Bacterial ingestion assay. Cells were released from monolayers in tissue culture flasks by 5 min. of incubation with trypsin-versene mixture (BioWhitaker, Walkersville, Md.), washed, counted and seeded into 96-well tissue culture plates at 10^5 cells/well in supplemented F-12 medium and incubated at 37° C. in 5% CO2. Fresh cultures of P. aeruginosa grown overnight at 37° C. on a tryptic soy agar plate were suspended in supplemented F-12 medium to prepare the bacterial inoculum. Then 10^6 colony forming units (cfu) of the bacterial inoculum were added per well of 10^5 epithelial cells. Bacteria were allowed to invade the epithelial cells for 3 to 4 hours at 37° C., after which nonadherent bacteria were removed by washing. The remaining steps of the assay and the steps involved in the controls have previously been described. Three to 9 replicates were obtained per point, and analyzed using analysis of variance (ANOVA) and the Fisher PLSD statistic to determine pairwise differences. […]

The test system of test [2] is WI-38 cells. As to the kind of experiment: Inhibition of internalization of P. aeruginosa strain PAO1 into WI-38 cells. The conditions noted are these: strain PAO1, WI 38 cells, 1 nM peptide. In kind it is cell-based, human. On the procedure: WI-38 (human diploid lung cell line, ATCC. no. CCL-75) and A549 cells (human lung carcinoma cells, ATCC no. CCL-185) were obtained from the ATCC and grown according to their instructions.
Bacterial ingestion assay. Cells were released from monolayers in tissue culture flasks by 5 min. of incubation with trypsin-versene mixture (BioWhitaker, Walkersville, Md.), washed, counted and seeded into 96-well tissue culture plates at 10^5 cells/well in supplemented F-12 medium and incubated at 37° C. in 5% CO2. Fresh cultures of P. aeruginosa grown overnight at 37° C. on a tryptic soy agar plate were suspended in supplemented F-12 medium to prepare the bacterial inoculum. Then 10^6 colony forming units (cfu) of the bacterial inoculum were added per well of 10^5 epithelial cells. […] Three to 9 replicates were obtained per point, and analyzed using analysis of variance (ANOVA) and the Fisher PLSD statistic to determine pairwise differences.
Inhibition of ingestion in the presence of membranes isolated from C127 cells, monoclonal antibodies to extracellular domains of CFTR, or synthetic peptides corresponding to the first or fourth extracellular domains of CFTR was evaluated by adding these materials to the bacteria prior to adding them directly into wells for evaluation of bacterial uptake. […]

For the sequence “GRIIASYDPDNKEER (listed as Homo Sapiens) [First domain]”, the “Mean cfu of P. aeruginosa internalized (standard deviation)” value in test [1] (0.001 nanomoles peptide) was 1.3938 × 10^5 (7.6735 × 10^3) cfu; in test [1] (0.01 nanomoles peptide) it was 1.405 × 10^5 (9.4323 × 10^3) cfu; in test [1] (0.1 nanomoles peptide) it was 7.232 × 10^4 (5.6982 × 10^3)^a cfu; in test [1] (1 nanomoles peptide), 1.462 × 10^4 (2.6955 × 10^3)^a cfu. The “Mean cfu (standard deviation) of P. aeruginosa internalized” value in test [2] is reported as 3.497 × 10^4 (3.751 × 10^3)^a cfu.

As for “LWLLGNTPLQDKGNSTHSRNNSYAVIITSTS (listed as Homo Sapiens) [Fourth domain, reference compound]”, the “Mean cfu of P. aeruginosa internalized (standard deviation)” value is recorded as 1.3275 × 10^5 (9.408 × 10^3) cfu in test [1] (0.001 nanomoles peptide), 1.412 × 10^5 (7.1986 × 10^3) cfu in test [1] (0.01 nanomoles peptide), 1.416 × 10^5 (1.195 × 10^4) cfu in test [1] (0.1 nanomoles peptide) and 1.42 × 10^5 (1.746 × 10^4) cfu in test [1] (1 nanomoles peptide). Also, in test [2], the “Mean cfu (standard deviation) of P. aeruginosa internalized” value was 7.3433 × 10^4 (9.124 × 10^3) cfu.
